Data as given in ChEMBL document CHEMBL1137226, “Structure modifications of 6-aminoquinolones with potent anti-HIV activity” (J Med Chem, 2004).
In brackets after ≈: the same amount, converted by molar mass.

Tests used:
MT4 [1] = experiment: Selectivity index towards HIV-2 (ROD) in MT-4 cells; format: functional, Homo sapiens
CCRF-CEM [2] = experiment: Concentration of compound that reduces the viability of mock-infected CEM cells by 50%; format: functional; details: Homo sapiens
CCRF-CEM [3] = experiment: Selectivity index towards HIV-2 (ROD) in CEM cells; format: functional, Homo sapiens
CCRF-CEM [4] = experiment: Selectivity index towards HIV-1 (IIIB) in CEM cells; format: functional, Homo sapiens
[5] = Concentration of compound required for reduction of p24 production in HIV-1 (IIIB) infected peripheral blood mononuclear cells; format: functional; details: Homo sapiens
[6] = Concentration of compound that reduces the viability of mock-infected peripheral blood mononuclear cells by 50%; format: functional; details: Homo sapiens
MT4 [7] = experiment: Concentration of compound that reduces the viability of mock-infected MT-4 cells by 50%; format: functional; details: Homo sapiens
MT4 [8] = experiment: Maximum protection (%) of MT-4 cells from HIV-2 (ROD) induced cytopathogenicity; value ranges from 60-64%; format: functional, Homo sapiens
CCRF-CEM [9] = experiment: Concentration of compound required for protection of CEM cells from HIV-2 (ROD) induced cytopathogenicity; format: functional, cell-based; details: Homo sapiens
MT4 [10] = experiment: Concentration required for protection of MT-4 cells from HIV-2 (ROD) induced cytopathogenicity in MTT assay; format: functional, cell-based; details: Homo sapiens
[11] = Selectivity index towards HIV-1 (IIIB) in peripheral blood mononuclear cells; format: functional, Homo sapiens
CCRF-CEM [12] = experiment: Concentration of compound required for protection of CEM cells from HIV-1 (IIIB) induced cytopathogenicity; format: functional, cell-based; details: Homo sapiens
MT4 [13] = experiment: Maximum protection (%) of MT-4 cells from HIV-1 (IIIB) induced cytopathogenicity; value ranges from 35-59%; format: functional, Homo sapiens
MT4 [14] = experiment: Selectivity index towards HIV-1 (IIIB) in MT-4 cells; format: functional, Homo sapiens
MT4 [15] = experiment: Concentration required for protection of MT-4 cells from HIV-1 (IIIB) induced cytopathogenicity in MTT assay; format: functional, cell-based; details: Homo sapiens
MT4 [16] = experiment: Maximum protection (%) of MT-4 cells from HIV-2 (ROD) induced cytopathogenicity; format: functional, Homo sapiens
MT4 [17] = experiment: Maximum protection (%) of MT-4 cells from HIV-1 (IIIB) induced cytopathogenicity; value ranges from 4-8%; format: functional, Homo sapiens
MT4 [18] = experiment: Maximum protection (%) of MT-4 cells from HIV-1 (IIIB) induced cytopathogenicity; value ranges from 16-36%; format: functional, Homo sapiens
MT4 [19] = experiment: Maximum protection (%) of MT-4 cells from HIV-1 (IIIB) induced cytopathogenicity; value ranges from 0-1%; format: functional, Homo sapiens
MT4 [20] = experiment: Maximum protection (%) of MT-4 cells from HIV-1 (IIIB) induced cytopathogenicity; value ranges from 10-27%; format: functional, Homo sapiens
MT4 [21] = experiment: Maximum protection (%) of MT-4 cells from HIV-2 (ROD) induced cytopathogenicity; value ranges from 55-58%; format: functional, Homo sapiens
MT4 [22] = experiment: Maximum protection (%) of MT-4 cells from HIV-1 (IIIB) induced cytopathogenicity; value ranges from 32-62%; format: functional, Homo sapiens
MT4 [23] = experiment: Maximum protection (%) of MT-4 cells from HIV-2 (ROD) induced cytopathogenicity; value ranges from 22-24%; format: functional, Homo sapiens
MT4 [24] = experiment: Maximum protection (%) of MT-4 cells from HIV-1 (IIIB) induced cytopathogenicity; value ranges from 34-37%; format: functional, Homo sapiens
MT4 [25] = experiment: Maximum protection (%) of MT-4 cells from HIV-1 (IIIB) induced cytopathogenicity; value ranges from 57-110%; format: functional, Homo sapiens
MT4 [26] = experiment: Maximum protection (%) of MT-4 cells from HIV-2 (ROD) induced cytopathogenicity; value ranges from 43-78%; format: functional, Homo sapiens
MT4 [27] = experiment: Maximum protection (%) of MT-4 cells from HIV-1 (IIIB) induced cytopathogenicity; value ranges from 29-40%; format: functional, Homo sapiens
MT4 [28] = experiment: Maximum protection (%) of MT-4 cells from HIV-2 (ROD) induced cytopathogenicity; value ranges from 29-63%; format: functional, Homo sapiens
MT4 [29] = experiment: Maximum protection (%) of MT-4 cells from HIV-1 (IIIB) induced cytopathogenicity; value ranges from 88-115%; format: functional, Homo sapiens

| Structure (SMILES) | Selectivity index (MT4 [1]) | CC50 (CCRF-CEM [2]) [µg/mL] | Selectivity index (CCRF-CEM [3]) | Selectivity index (CCRF-CEM [4]) | EC50 [5] [µg/mL] | CC50 [6] [µg/mL] | CC50 (MT4 [7]) [µg/mL] | EC50 (CCRF-CEM [9]) [µg/mL] | EC50 (MT4 [10]) [µg/mL] | Selectivity index [11] | EC50 (CCRF-CEM [12]) [µg/mL] | Selectivity index (MT4 [14]) | EC50 (MT4 [15]) [µg/mL] | Protection (MT4 [16]) [%] | other results |
| --- | --- | --- | --- | --- | --- | --- | --- | --- | --- | --- | --- | --- | --- | --- | --- |
| Cn1cc(C(=O)O)c(=O)c2cc(N)c(N3CCN(c4ccccn4)CC3)cc21 | 3.7 | > 100 | >1667 | >3333 | 0.05 (≈ 0.132 µM) | 1.45 (≈ 3.82 µM) | 0.71 (≈ 1.87 µM) | 0.06 (≈ 0.158 µM) | 0.19 (≈ 0.501 µM) | 28 | 0.03 (≈ 0.0791 µM) | <=2.4 | ≥ 0.29 | – | Protection (MT4 [8]): <64%; Protection (MT4 [13]): <59% |
| Cn1cc(C(=O)O)c(=O)c2cc(N)c(N3CCN(c4nc5cc(Cl)ccc5s4)CC3)cc21 | <1 | – | – | – | – | – | 0.0021 (≈ 0.00447 µM) | – | > 0.0021 | – | – | <1 | > 0.0021 | 3 | Protection (MT4 [17]): <8% |
| Nc1cc2c(=O)c(C(=O)O)cn(C3CC3)c2cc1N1CCN(c2nc3ccccc3s2)CC1 | <1 | – | – | – | – | – | 0.07 (≈ 0.152 µM) | – | > 0.07 | – | – | <1 | > 0.07 | 42 | Protection (MT4 [18]): <36% |
| Cn1cc(C(=O)O)c(=O)c2cc(N)c(N3CCN(c4nc5ccccc5[nH]4)CC3)cc21 | – | – | – | – | – | – | > 125 | – | > 125 | – | – | – | > 125 | 0 | Protection (MT4 [19]): <1% |
| Cn1cc(C(=O)O)c(=O)c2cc(N)c(N3CCN(C4=Nc5ccccc5SC4)CC3)cc21 | <1 | – | – | – | – | – | 2.14 (≈ 4.76 µM) | – | > 2.14 | – | – | <1 | > 2.14 | 15 | Protection (MT4 [20]): <27% |
| Nc1cc2c(=O)c(C(=O)O)cn(N3CCN(c4ccccn4)CC3)c2cc1N1CCN(c2ccccn2)CC1 | 3 | > 100 | >8 | >11 | 2.24 (≈ 4.25 µM) | ≥ 43.3 | 58.5 (≈ 111 µM) | 12 (≈ 22.8 µM) | 19.2 (≈ 36.5 µM) | >=19 | 9.4 (≈ 17.9 µM) | <=3.4 | ≥ 17.4 | – | Protection (MT4 [21]): <58%; Protection (MT4 [22]): <62% |
| Nc1cc2c(=O)c(C(=O)O)cn(-c3ccc(F)cc3)c2cc1N1CCN(c2ccccn2)CC1 | <1 | – | – | – | – | – | 22 (≈ 47.9 µM) | – | > 22 | – | – | <1 | > 22 | – | Protection (MT4 [23]): <24%; Protection (MT4 [24]): <37% |
| Cn1cc(C(=O)O)c(=O)c2cc(N)c(N3CCN(c4cccc(C(F)(F)F)c4)CC3)cc21 | <=7 | 8 (≈ 17.9 µM) | 40 | 89 | 0.05 (≈ 0.112 µM) | 1.55 (≈ 3.47 µM) | 2.18 (≈ 4.88 µM) | 0.2 (≈ 0.448 µM) | ≥ 0.31 | 28 | 0.09 (≈ 0.202 µM) | 7 | 0.31 (≈ 0.694 µM) | – | Protection (MT4 [25]): <110%; Protection (MT4 [26]): <78% |
| Cc1nnc(N2CCN(c3cc4c(cc3N)c(=O)c(C(=O)O)cn4C)CC2)s1 | <=12.1 | – | – | – | – | – | > 125 | – | ≥ 10.3 | – | – | <1 | > 125 | – | Protection (MT4 [27]): <40%; Protection (MT4 [28]): <63% |
| Nc1cc2c(=O)c(C(=O)O)cn(C3CC3)c2cc1N1CCN(c2cccc(C(F)(F)F)c2)CC1 | 10.1 | 9 (≈ 19 µM) | 11 | 11 | 1.09 (≈ 2.31 µM) | 4.63 (≈ 9.8 µM) | 3.83 (≈ 8.11 µM) | 0.8 (≈ 1.69 µM) | 0.38 (≈ 0.804 µM) | 4 | 0.8 (≈ 1.69 µM) | 14.2 | 0.27 (≈ 0.571 µM) | 71 | Protection (MT4 [29]): <115% |
